Where two headings read alike, the source gives them in different places.
Key:
colon cancer cell lines [1] = assay: NCI 60 one-dose screen; type: cell-based; details: of the 7 colon
[2] = tested on: non-small cell lung cancer cell lines; assay: NCI 60 one-dose screen; type: cell-based; details: of the 9 cell lines
[3] = tested on: breast cancer cells lines; assay: NCI 60 one-dose screen; type: cell-based; details: of the 6 breast
renal cancer cell lines [4] = assay: cells; details: read-out: Average Concentration (M), LC50, Renal
Description: (§1) All compounds submitted for screening were initially tested at a single high dose (10^-5 M) against the fill NCI 60 cell panel. Only compounds which satisfied pre-determined threshold inhibition criteria in a minimum number of cell lines progressed to a second round of testing utilizing a more comprehensive 5-dose inhibition assay. The threshold inhibition criteria for progression to the 5-dose assays were selected to efficiently capture compounds with anti-proliferative activity based on historical DTP screening data.
(§2) Concentrations for G150, IC50, TGI, and LC50 were calculated for all cell lines tested, and heat plots were prepared.

NCI 60 cell panel = type: cell-based; details: one-dose
Description: A) Eight compounds were submitted to the National Cancer Institute (NCI) 60 tumor cell line drug discovery program (DTP) for anticancer screening.
as §1

CNS cancer cell lines [5] = assay: cells; details: read-out: Average Concentration (M), LC50, CNS
Description: as §1, §2

[6] = tested on: ovarian cancer cell lines; assay: cells; details: read-out: Average Concentration (M), LC50, Ovarian
Description: as §1, §2

NCI-60 cancer cell lines [7] = details: five-dose
Description: as §1, §2

[8] = tested on: ovarian cancer cell lines; assay: NCI 60 one-dose screen; type: cell-based; details: of the 7 ovarian
melanoma cell lines [9] = tested on: melanoma cell lines
Description: as §1, §2

colon cancer cell lines [10] = tested on: colon cancer cell lines
Description: as §1, §2

melanoma cell lines [11] = assay: NCI 60 one-dose screen; type: cell-based
renal cancer cell lines [12] = assay: NCI 60 one-dose screen; type: cell-based; details: of the 6 renal
NCI-60 cancer cell lines [13] = assay: cells
Description: as §1, §2

[14] = tested on: ovarian cancer cell lines
Description: as §1, §2

melanoma cell lines [15] = assay: cells; details: read-out: Average Concentration (M), LC50, Melanoma
Description: as §1, §2

renal cancer cell lines [16] = tested on: renal cancer cell lines
Description: as §1, §2

colon cancer cell lines [17] = assay: cells; details: read-out: Average Concentration (M), LC50, Colon
Description: as §1, §2

CNS cancer cell lines [18] = assay: NCI 60 one-dose screen; type: cell-based; details: of the 6 CNS
CNS cancer cell lines [19] = tested on: CNS cancer cell lines
Description: as §1, §2

Structure (SMILES): CCCCCCCC(=O)SCC/C=C/[C@@H]1CC(=O)NCc2nc(co2)C2=N[C@@](C)(CS2)C(=O)N[C@@H](C(C)C)C(=O)O1 [compound of formula D]
- cell lines with some level of lethality (colon cancer cell lines [1]): 4
- cell lines with some level of lethality [2]: 7
- cell lines with some level of lethality [3]: 3
- CC50 (renal cancer cell lines [4]): 1.17e-05 M
- percent of NCI cell lines with some level of lethality (NCI 60 cell panel; 58 cell lines tested): 55%
- NCI cell lines with some level of lethality (NCI 60 cell panel; of 58 cell lines tested): 32
- CC50 (CNS cancer cell lines [5]): 1.95e-05 M
- CC50 [6]: 2.34e-06 M
- Percent of Cell Lines Impacted (%), GI50 (NCI-60 cancer cell lines [7]; 50% Growth Inhibition): 100%
- Percent of Cell Lines Impacted (%), LC50 (NCI-60 cancer cell lines [7]; 50% Lethal Concentration reached): 16%
- Percent of Cell Lines Impacted (%), TGI (NCI-60 cancer cell lines [7]; Total Growth Inhibition): 67%
- Total Impacted Cell Lines (n), TGI (NCI-60 cancer cell lines [7]; Total Growth Inhibition): 38
- Average Concentration (M), TGI (NCI-60 cancer cell lines [7]; average over impacted cell lines): 4.57e-06 M
- cell lines with some level of lethality [8]: 4
- Total Impacted Cell Lines (n), LC50, Melanoma (melanoma cell lines [9]): 3
- Percent of Cell Lines Impacted (%), LC50, Melanoma (melanoma cell lines [9]; five-dose): 38%
- Total Impacted Cell Lines (n), LC50, Colon (colon cancer cell lines [10]): 2
- Percent of Cell Lines Impacted (%), LC50, Colon (colon cancer cell lines [10]; five-dose): 29%
- lethality in select melanoma cell lines (melanoma cell lines [11]; one-dose studies): > 90%
- cell lines with some level of lethality (melanoma cell lines [11]; one-dose, of the 9 melanoma): 8
- cell lines with some level of lethality (renal cancer cell lines [12]): 4
- GI50 (NCI-60 cancer cell lines [13]; read-out: Average Concentration (M), GI50): 3.83e-08 M
- CC50 (NCI-60 cancer cell lines [13]; read-out: Average Concentration (M), LC50): 5.48e-06 M
- GI50 (NCI-60 cancer cell lines [13]; read-out: GI50 concentrations (M), order of magnitude): 1e-08 M
- CC50 (NCI-60 cancer cell lines [13]; read-out: LC50 concentrations, order of magnitude): 1e-06 M
- Total Impacted Cell Lines (n), LC50, Ovarian [14]: 1
- Percent of Cell Lines Impacted (%), LC50, Ovarian ([14]; five-dose): 14%
- CC50 (melanoma cell lines [15]): 3.72e-07 M
- Total Impacted Cell Lines (n), LC50, Renal (renal cancer cell lines [16]): 2
- Percent of Cell Lines Impacted (%), LC50, Renal (renal cancer cell lines [16]; five-dose): 25%
- CC50 (colon cancer cell lines [17]): 1.47e-06 M
- cell lines with some level of lethality (CNS cancer cell lines [18]): 2
- Total Impacted Cell Lines (n), LC50, CNS (CNS cancer cell lines [19]): 1
- Percent of Cell Lines Impacted (%), LC50, CNS (CNS cancer cell lines [19]; five-dose): 20%

From US10676504B2 (Colorado State University Research Foundation, priority 2015, dated 2020)
